Consider one compound from ChEMBL document CHEMBL1142630, “The application of HPLC with on-line coupled UV/MS-biochemical detection for isolation of an acetylcholinesterase inhibitor from narcissus 'Sir Winston Churchill'” (J Nat Prod, 2000).

The assay deals with Acetylcholinesterase (Homo sapiens, UniProt P22303). Nature of the assay: Inhibition of AChE by microplate assay.

The structures appear in SMILES notation.

Sequence of Acetylcholinesterase (P22303 whole entry): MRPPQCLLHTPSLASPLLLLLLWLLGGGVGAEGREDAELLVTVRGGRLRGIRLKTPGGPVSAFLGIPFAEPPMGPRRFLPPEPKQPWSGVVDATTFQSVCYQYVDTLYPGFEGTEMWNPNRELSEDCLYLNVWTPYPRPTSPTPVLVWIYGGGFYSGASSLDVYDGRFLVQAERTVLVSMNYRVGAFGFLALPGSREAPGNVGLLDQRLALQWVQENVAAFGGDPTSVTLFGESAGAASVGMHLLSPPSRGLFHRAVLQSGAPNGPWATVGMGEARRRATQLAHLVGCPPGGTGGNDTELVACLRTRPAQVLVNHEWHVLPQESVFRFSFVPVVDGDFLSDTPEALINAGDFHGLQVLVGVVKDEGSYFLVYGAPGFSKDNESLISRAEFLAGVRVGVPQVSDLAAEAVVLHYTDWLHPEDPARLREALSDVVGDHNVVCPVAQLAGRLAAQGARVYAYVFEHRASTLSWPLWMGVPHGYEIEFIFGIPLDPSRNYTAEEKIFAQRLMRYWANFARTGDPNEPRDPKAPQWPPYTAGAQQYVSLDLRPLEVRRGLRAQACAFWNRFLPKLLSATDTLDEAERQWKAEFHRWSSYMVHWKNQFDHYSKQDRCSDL

For orientation: IC50 means the concentration that inhibits the measured activity by half. Read a high IC50 as a need for much substance. In the case of `CO[C@@H]1[C@@H](O)[C@H]2c3cc4c(cc3CN3CC=C([C@H]1O)[C@H]23)OCO4` [UNGIMINORINE], the IC50 is 86 µM.
